Test results published in patent US8778929B2, “Substituted heteroaryl inhibitors of B-RAF” (Boehringer Ingelheim International GmbH, priority 2008, dated 2014).

Target: B-Raf (V600E)-kinase (Homo sapiens, UniProt P15056, V600E)
Test: Kinase test B-Raf (V600E)
Format: biochemical
Conditions: 100% = no inhibition, 0% = total inhibition, read-out: % CTL (residual activity of the enzyme relative to DMSO control); for remaining activity at 2 µM: compound concentration 2 μM
Description: In a dilution series 10 μL of test substance solution are placed in a multiwell plate. The dilution series is selected so that generally a range of concentrations of 2 μM to 0.119 nM or 0.017 nM is covered. If necessary the initial concentration of 2 μM is changed to 50 μM, 10 μM or 0.4 μM or 0.2857 μM and further dilution is carried out accordingly. The final concentration of DMSO is 5%. 10 μL of the B-Raf (V600E)-kinase solution are pipetted in (containing 0.5 ng B-Raf (V600E)-kinase in 20 mM Tris-HCl pH 7.5, 0.1 mM EDTA, 0.1 mM EGTA, 0.286 mM sodium orthovanadate, 10% glycerol, 1 mg/mL bovine serum albumin, 1 mM dithiothreitol) and the mixture is incubated for 1 h at RT under with shaking The kinase reaction is started by the addition of 20 μL ATP solution [final concentration: 250 μM ATP, 30 mM Tris-HCl pH 7.5, 0.02% Brij, 0.2 mM sodium orthovanadate, 10 mM magnesium acetate, 0.1 mM EGTA, phosphatase cocktail (Sigma, # P2850, dilution recommended by the manufacturer), 0.1 mM EGTA] and 10 μL MEK1 solution [containing 50 ng biotinylated MEK1 (prepared from purified MEK1 according to standard procedure, e.g. with EZ-Link Sulpho-NHS-LC-Biotin reagent, Pierce, # 21335) and carried out for 60 min at RT with constant shaking. The reaction is stopped by the addition of 12 μL of a 100 mM EDTA solution and incubation is continued for a further 5 min. 55 μL of the reaction solution are transferred into a streptavidin-coated plate (e.g. Streptawell HighBond, Roche, #11989685001) and shaken gently for 1 h at RT, in order to bind biotinylated MEK1 to the plate. After elimination of the liquid the plate is washed five times with 200 μL of 1×PBS and 100 μL solution of primary antibody plus europium-labelled secondary antibody [Anti Phospho-MEK (Ser217/221), Cell Signaling, # 9121 and Eu-N1 labeled goat-anti-rabbit antibody, Perkin Elmer, #AD0105], the primary antibody is diluted 1:2000 and the secondary antibody is diluted to 0.4-0.5 μg/mL in Delfia Assay Buffer (Perkin Elmer, #1244-111). After 1 h shaking at RT the solution is poured away and washed five times with 200 μL Delfia Wash Buffer (Perkin Elmer, #4010-0010/#1244-114). After the addition of 200 μL Enhancement Solution (Perkin Elmer, #4001-0010/#1244-105) the mixture is shaken for 10 min at RT and then measured in a Wallac Victor using the program “Delfia Time Resolved Fluorescence (Europium)”. IC50 values are obtained from these dosage-activity curves using a software program (GraphPadPrizm).
A value of 100% indicates no inhibition while a value of 0% indicates total inhibition. The % CTL values denote the residual activity of the enzyme after the addition of the inhibitory compound in the solvent DMSO in relation to the enzyme activity in the solvent DMSO without the addition of a compound (control). The values were determined using the B-Raf(V600E)-kinase test described above.

Chain of B-Raf (V600E)-kinase (P15056 whole entry V600E): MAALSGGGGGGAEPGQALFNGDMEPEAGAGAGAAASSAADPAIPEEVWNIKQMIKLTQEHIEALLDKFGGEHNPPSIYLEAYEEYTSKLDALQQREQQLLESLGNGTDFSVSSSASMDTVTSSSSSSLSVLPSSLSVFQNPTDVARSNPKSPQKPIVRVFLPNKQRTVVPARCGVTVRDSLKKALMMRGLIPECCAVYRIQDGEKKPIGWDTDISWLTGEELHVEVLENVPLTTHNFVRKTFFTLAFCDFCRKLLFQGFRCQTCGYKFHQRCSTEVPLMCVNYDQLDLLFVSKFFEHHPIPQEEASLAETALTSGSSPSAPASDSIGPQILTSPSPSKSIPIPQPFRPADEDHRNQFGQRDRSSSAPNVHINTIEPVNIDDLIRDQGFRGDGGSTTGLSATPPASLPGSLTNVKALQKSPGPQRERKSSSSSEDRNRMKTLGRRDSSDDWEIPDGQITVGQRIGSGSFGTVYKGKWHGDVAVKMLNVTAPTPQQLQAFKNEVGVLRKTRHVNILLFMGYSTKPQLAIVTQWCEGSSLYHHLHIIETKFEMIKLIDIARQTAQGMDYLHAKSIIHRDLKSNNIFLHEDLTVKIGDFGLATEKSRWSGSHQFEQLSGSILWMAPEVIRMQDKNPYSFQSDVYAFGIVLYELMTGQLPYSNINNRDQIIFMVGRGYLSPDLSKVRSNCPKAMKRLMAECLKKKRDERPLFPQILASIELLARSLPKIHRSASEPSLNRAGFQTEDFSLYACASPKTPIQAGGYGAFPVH

Row | SMILES | remaining activity at 2 µM [%] | remaining activity at 1.43 µM (measurement at 1.43 μM (***)) [%]
1 | Cc1ncc(C(=O)Nc2cc(C(C)(C)C)on2)cc1-n1cc(-c2cncc(N3CC[C@@H](N(C)C)C3)c2)nn1 [Example I-143] | 2.2 | 
2 | Cc1ncc(C(=O)Nc2cc(C(C)(C)C)on2)cc1-n1cc(-c2cncc(N3CC[C@H](N(C)C)C3)c2)nn1 [Example I-145] | 2.2 | 
3 | Cc1ncc(C(=O)Nc2ccc(Cl)c(C(F)(F)F)c2)cc1-n1cc(-c2cncc(N3CCN(C)CC3)c2)nn1 [Example I-142] | 1.5 | 
4 | Cc1ncc(C(=O)Nc2cc(C(F)(F)F)cc(N3CCN(C)CC3)c2C)cc1-n1cc(-c2cnn(C)c2C)nn1 [Example I-101] |  | 1.3
5 | Cc1ncc(C(=O)Nc2cc(C3=CCN(CC4CC4)CC3)c(C)c(C(F)(F)F)c2)cc1-n1cc(-c2cnn(C)c2C)nn1 [Example I-98] | 3 | 
6 | Cc1ncc(C(=O)Nc2cc(N3CCCCC3)cc(C(F)(F)F)c2)cc1-n1cc(-c2cnn(C)c2C)nn1 [Example I-74] | 9 | 
7 | COc1c(CNC(C)C)cc(NC(=O)c2cnc(C)c(-n3cc(-c4cnn(C)c4C)nn3)c2)cc1C(F)(F)F [Example I-103] | 3.8 | 
8 | Cc1ncc(NC(=O)c2cccc(OC(F)(F)F)c2)cc1-n1cc(-c2cncc(N3CCN(C(C)(C)C)CC3)c2)nn1 [XII-47] | 4 | 
9 | COc1cncc(-c2cn(-c3cc(C(=O)Nc4cc(C(C)(C)C)n[nH]4)cnc3C)nn2)c1 [Example I-84] | 2.4 | 
10 | Cc1ncc(C(=O)Nc2cc(C(C)(C)C)on2)cc1-n1cc(-c2cnn(C)c2C)nn1 [Example I-1] | 7.6 | 
11 | CC(=O)Nc1ncc(-c2cn(-c3cc(C(=O)Nc4cc(CN5CCCC5)cc(C(F)(F)F)c4)cnc3C)nn2)s1 [Example I-15] | 1.4 | 
12 | CCNc1cc(NC(=O)c2cnc(C)c(-n3cc(-c4cnn(C)c4C)nn3)c2)cc(C(F)(F)F)c1 [Example I-75] | 7.3 | 
13 | Cc1ncc(NC(=O)c2cc(C(F)(F)F)ccn2)cc1-n1cc(-c2cnn(C)c2C)nn1 [XII-2] | 4.6 | 
14 | CCC(C)N1CC=C(c2cc(NC(=O)c3cnc(C)c(-n4cc(-c5cnn(C)c5C)nn4)c3)cc(C(F)(F)F)c2C)CC1 (centres unmarked) [Example I-99] | 1.9 | 
15 | CCC(CC)N1CCN(c2cncc(-c3cn(-c4cc(C(=O)Nc5cc(C(C)(C)C)on5)cnc4C)nn3)c2)CC1 [Example I-204] | 1 | 
16 | COc1ccc(C(=O)Nc2cnc(C)c(-n3cc(-c4cncc(N5CCN(C(C)(C)C)CC5)c4)nn3)c2)cc1C(F)(F)F [XII-45] | 2.9 | 
17 | Cc1ncc(C(=O)Nc2cc(C(C)(C)C)on2)cc1-n1cc(-c2cncc(N3CCN(C4CCCC4)CC3)c2)nn1 [Example I-166] | 7.9 | 
18 | Cc1ncc(NC(=O)c2cccc(C(C)(C)C#N)c2)cc1-n1cc(-c2cncc(CO)c2)nn1 [XII-63] | 3.8 | 
19 | Cc1ncc(C(=O)Nc2cc(C3=CCNCC3)cc(C(F)(F)F)c2)cc1-n1cc(-c2cnn(C)c2C)nn1 [Example I-88] | 1.3 | 
20 | CCN1CCN(c2cncc(-c3cn(-c4cc(NC(=O)c5ccc(OC)c(C(F)(F)F)c5)cnc4C)nn3)c2)CC1 [XII-39] | 2.5 | 
21 | Cc1ncc(C(=O)Nc2cc(CN3CCCC3)cc(C(F)(F)F)c2)cc1-n1cc(-c2cncnc2)nn1 [Example I-72] | 5.1 | 
22 | Cc1ncc(C(=O)Nc2cc(C(C)(C)C)on2)cc1-n1cc(-c2cncc(N3CCCOCC3)c2)nn1 [Example I-36] | 1.8 | 
23 | Cc1ncc(NC(=O)c2cccc(C(C)(C)C#N)c2)cc1-n1cc(-c2cncc(C#N)c2)nn1 [XII-13] | 0.9 | 
24 | Cc1ncc(NC(=O)c2cccc(C(C)(C)C#N)c2)cc1-n1cc(-c2cncnc2)nn1 [XII-10] | 2.5 | 
25 | Cc1ncc(C(=O)Nc2cc(C(C)(C)C)on2)cc1-n1cc(-c2cncc(CN3CCN(C(C)C)CC3)c2)nn1 [Example I-190] | 4.1 | 
26 | Cc1ncc(C(=O)Nc2cc(C(C)(C)C)on2)cc1-n1cc(-c2cncc(NCCN(C)C)c2)nn1 [Example I-138] | 2.5 | 
